Each structure is given as a SMILES string.

One series relates to MCF-10A cells. Nature of the series: Cellular uptake assay (UPLC-ESI-MS/MS of cell lysates). The class given is cell-based, human. Particulars: 20 μM, 72 h. As for the experimental part: (§1) Figure 1 Conjugation of PZ with DHA increases the cellular uptake and stability of PZ and DHA. The cells were treated with 20 μM of PZ, DHA or PZ-DHA and cultured for 72 h at 37 °C. Cells were harvested and washed thoroughly using cold PBS. Cells were lysed in cold acetone containing 0.05 mg/mL quercetin, and cell lysates were collected by centrifugation and analyzed by using UPLC-ESI-MS/MS. (A) mean % cellular uptake of PZ, DHA and PZ-DHA. (B) fold increase in intracellular PZ and DHA when conjugated. ANOVA multiple means statistical comparison method was performed and differences among means were compared using Tukey’s test; *p < 0.05. (MDA-MB-231 p = 0.008; MDA-MB-468 p = 0.01; 4T1 p = 0.02; MCF-7 p = 0.01; MCF-10A p = 0.0005).
(§2) Cells were seeded at a density of 3 × 10^5 cells (MDA-MB-231, MDA-MB-468, MCF-7, and MCF-10A) or 1 × 10^5 cells (4T1) /T-75 flask. The cells were cultured overnight to promote cell adhesion. Adherent cells were treated with a sub-cytotoxic concentration (20 μM) of PZ, DHA or PZ-DHA and cultured for 72 h at 37 °C. The supernatant was carefully removed, and cell monolayers were washed with cold PBS. Cells were harvested using TrypLE Express and washed thoroughly with cold PBS. […] The sample was analyzed using a UPLC/ESI/MS system. The percentage cell uptake of the total dose was quantified using standard curves of PZ (R^2 = 0.99), DHA (R^2 = 0.98) or PZ-DHA (R^2 = 0.99) made in methanol.
(§3) PZ-DHA and/or PZ-DHA metabolites in malignant/non-malignant epithelial cell lysates, in vitro microsome enzyme reaction mixtures, and mouse serum aliquots were determined using UPLC-ESI–MS/MS instrument (Waters Limited, Mississauga, ON, Canada). All mass spectroscopic analyses were performed using mass scan (full-scan, identification of unknowns) and single ion monitoring (SIM; quantification of PZ, DHA, PZ-DHA, and quercetin) modes of a Waters H-class UPLC separations module coupled with a Micromass Quattro micro API MS/MS system and MassLynx V4.0 control software. […]

Another series has as its system MCF-7 cells. The description is as above. It counts as cell-based, human. The following applies: 20 μM, 72 h. As for the experimental part:
as §1, §2, §3

For another series, the system named is MDA-MB-468 cells. Described as above. It counts as cell-based, human. Particulars: 20 μM, 72 h. As for the experimental part:
as §1, §2, §3

Series [1] deals with mammary carcinoma cells and mammary epithelial cells. The experiment in a line: Cellular uptake assay, all cell lines together. The class given is cell-based, human and mouse. Particulars: 72 h, 20 μM. As for the experimental part:
as §1
Cells were seeded at a density of 3 × 10^5 cells (MDA-MB-231, MDA-MB-468, MCF-7, and MCF-10A) or 1 × 10^5 cells (4T1) /T-75 flask. The cells were cultured overnight to promote cell adhesion. Adherent cells were treated with a sub-cytotoxic concentration (20 μM) of PZ, DHA or PZ-DHA and cultured for 72 h at 37 °C. The supernatant was carefully removed, and cell monolayers were washed with cold PBS. Cells were harvested using TrypLE Express and washed thoroughly with cold PBS. The cell pellet was resuspended in 3 mL of cold acetone containing 0.05 mg/mL quercetin as the internal standard, and incubated overnight at 4 °C. Cell lysates were collected by centrifugation at 14,000×g for 15 min at 4 °C and samples were concentrated by evaporating acetone under a stream of nitrogen gas. Dry pellets were reconstituted in methanol and filtered. The sample was analyzed using a UPLC/ESI/MS system. The percentage cell uptake of the total dose was quantified using standard curves of PZ (R^2 = 0.99), DHA (R^2 = 0.98) or PZ-DHA (R^2 = 0.99) made in methanol.
PZ-DHA and/or PZ-DHA metabolites in malignant/non-malignant epithelial cell lysates, in vitro microsome enzyme reaction mixtures, and mouse serum aliquots were determined using UPLC-ESI–MS/MS instrument (Waters Limited, Mississauga, ON, Canada). All mass spectroscopic analyses were performed using mass scan (full-scan, identification of unknowns) and single ion monitoring (SIM; quantification of PZ, DHA, PZ-DHA, and quercetin) modes of a Waters H-class UPLC separations module coupled with a Micromass Quattro micro API MS/MS system and MassLynx V4.0 control software. An Allure biphenyl column (100 mm × 2.1 mm, 1.8 μm, Restek Pure Chromatography, Bellefonte, PA, USA) and a flow rate of 0.3 mL/min were employed. ESI- mode with a capillary voltage of 3000 V and a nebulizer gas (N2) temperature of 375 °C were used. A volume of 2 µL sample was injected.

On the set-up of series [2]: method as in PMID 31473253. The following applies: 100 mg/kg body weight via intraperitoneal injections; cited from earlier work.
Series [3] concerns mammary carcinoma cells (MDA-MB-231, MDA-MB-468, 4T1, MCF-7) and MCF-10A. On the set-up: method as in PMID 27535497. Particulars: cited from earlier work.

Regarding `CC/C=C\C/C=C\C/C=C\C/C=C\C/C=C\C/C=C\CCC(=O)OC[C@H]1O[C@@H](Oc2cc(O)cc(O)c2C(=O)CCc2ccc(O)cc2)[C@H](O)[C@@H](O)[C@@H]1O` [PZ-DHA, phloridzin docosahexaenoate], in the series on MCF-10A cells, the “PZ-DHA uptake and fold-increase in intracellular PZ and DHA versus the malignant cells” value is recorded as “similar”. Besides, the results for the “cellular uptake (as a % of the dose)” value with MCF-7 cells and in the series on MDA-MB-468 cells were 21% and 50%, respectively. For the same molecule, the “abundance in cells throughout the experimental period” value in series [1] was “stable abundance”. Besides, the “cellular uptake (as a % of the dose), in words” value in series [1] (all cell lines) is “significantly higher than that of PZ or DHA”. In series [2], the “liver or kidney toxicity” value is “does not show liver or kidney toxicity”. Also, the “selective cytotoxicity, malignant versus non-malignant cells” value in series [3] is “selectively kills mammary carcinoma cells”.

The record behind these values is publication PMC7721897, “Metabolism and pharmacokinetics of a novel polyphenol fatty acid ester phloridzin docosahexaenoate in Balb/c female mice” (Scientific Reports, 2020).
